{"source": "ChEMBL document CHEMBL1201862", "about": "“PubChem BioAssay data set” (2004)", "key": {"[1]": {"biological_target": "T1, Mannose-6-phosphate isomerase (Homo sapiens, UniProt P34949)", "T1 sequence (P34949 whole entry)": "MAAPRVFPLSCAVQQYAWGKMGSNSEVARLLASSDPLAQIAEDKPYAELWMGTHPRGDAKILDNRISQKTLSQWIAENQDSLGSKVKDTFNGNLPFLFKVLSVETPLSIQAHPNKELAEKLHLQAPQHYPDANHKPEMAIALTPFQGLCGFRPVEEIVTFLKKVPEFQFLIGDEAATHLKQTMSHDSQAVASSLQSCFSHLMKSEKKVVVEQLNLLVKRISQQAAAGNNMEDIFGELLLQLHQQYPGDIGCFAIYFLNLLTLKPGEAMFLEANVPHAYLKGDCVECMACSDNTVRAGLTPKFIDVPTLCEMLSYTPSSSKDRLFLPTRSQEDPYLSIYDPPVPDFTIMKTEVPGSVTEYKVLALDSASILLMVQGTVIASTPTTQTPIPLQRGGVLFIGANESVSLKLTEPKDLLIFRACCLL", "experiment": "inhibitors of human PMI, primary screen, biochemical, fluorescence intensity, coupled assay (AID 1209)"}, "[2]": {"biological_target": "DNA dC->dU-editing enzyme APOBEC-3A (Homo sapiens, UniProt P31941)", "sequence (P31941 whole entry)": "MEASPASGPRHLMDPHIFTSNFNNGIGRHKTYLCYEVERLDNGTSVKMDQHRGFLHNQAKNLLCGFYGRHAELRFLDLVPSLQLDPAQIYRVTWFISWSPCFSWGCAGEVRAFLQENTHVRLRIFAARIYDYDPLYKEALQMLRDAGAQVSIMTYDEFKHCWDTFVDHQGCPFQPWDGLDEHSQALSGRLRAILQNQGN", "experiment": "Dose Response confirmation of small molecule APOBEC3A DNA Deaminase Inhibitors via a fluorescence-based single-stranded DNA deaminase assay. [Related pubchem assays (depositor defined):AID493011, AID493024]", "format": "functional"}, "[3]": {"biological_target": "DNA dC->dU-editing enzyme APOBEC-3G (Homo sapiens, UniProt Q9HC16)", "sequence (Q9HC16 whole entry)": "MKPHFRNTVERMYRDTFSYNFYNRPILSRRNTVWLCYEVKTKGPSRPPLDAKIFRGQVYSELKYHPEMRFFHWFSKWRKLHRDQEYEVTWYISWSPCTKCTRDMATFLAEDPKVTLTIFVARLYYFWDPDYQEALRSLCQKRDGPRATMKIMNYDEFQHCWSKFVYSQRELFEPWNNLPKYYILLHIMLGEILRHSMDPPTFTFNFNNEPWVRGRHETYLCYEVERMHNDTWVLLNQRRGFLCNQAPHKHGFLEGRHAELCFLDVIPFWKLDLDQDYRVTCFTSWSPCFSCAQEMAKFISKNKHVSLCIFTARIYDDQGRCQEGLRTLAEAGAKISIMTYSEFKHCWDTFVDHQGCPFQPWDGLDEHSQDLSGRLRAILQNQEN", "format": "functional"}, "[4]": {"biological_target": "T2, RNA-binding protein pos-1 (Caenorhabditis elegans, UniProt G5EF15)", "T2 sequence (G5EF15 whole entry)": "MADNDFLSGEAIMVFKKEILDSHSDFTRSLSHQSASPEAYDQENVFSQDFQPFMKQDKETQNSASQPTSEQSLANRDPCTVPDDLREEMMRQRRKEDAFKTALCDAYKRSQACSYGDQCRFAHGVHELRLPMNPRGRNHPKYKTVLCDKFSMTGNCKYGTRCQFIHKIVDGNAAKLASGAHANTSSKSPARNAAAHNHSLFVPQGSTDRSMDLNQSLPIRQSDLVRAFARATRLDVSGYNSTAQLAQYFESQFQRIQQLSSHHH", "experiment": "inhibitors of POS-1/mex-3 RNA binding, dose response, biochemical, fluorescence polarization (AID 1964);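 also: purified POS-1 fused to maltose binding protein made in E. coli; potency of compounds blocking POS-1 binding to fluorescent RNA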"}, "[5]": {"biological_target": "Bifunctional protein GlmU (Mycobacterium tuberculosis, UniProt P9WMN3)", "sequence (P9WMN3 whole entry)": "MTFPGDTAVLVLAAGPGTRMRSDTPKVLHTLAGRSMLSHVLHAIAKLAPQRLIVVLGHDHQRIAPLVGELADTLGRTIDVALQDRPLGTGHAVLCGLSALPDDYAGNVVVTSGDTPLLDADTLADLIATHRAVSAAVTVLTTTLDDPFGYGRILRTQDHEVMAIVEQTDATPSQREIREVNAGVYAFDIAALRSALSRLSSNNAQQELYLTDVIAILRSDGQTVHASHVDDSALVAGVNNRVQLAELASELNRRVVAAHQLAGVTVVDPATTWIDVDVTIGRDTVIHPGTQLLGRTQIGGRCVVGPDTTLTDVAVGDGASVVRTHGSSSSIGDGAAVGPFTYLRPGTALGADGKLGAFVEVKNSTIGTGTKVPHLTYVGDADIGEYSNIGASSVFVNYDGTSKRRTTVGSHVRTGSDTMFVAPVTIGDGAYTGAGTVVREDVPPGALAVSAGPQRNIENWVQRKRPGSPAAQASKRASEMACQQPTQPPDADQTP", "experiment": "Inhibitors of Mycobacterial Glucosamine-1-phosphate acetyl transferase (GlmU). Secondary screen.", "set-up": "species or system Mycobacterium tuberculosis H37Rv"}, "[6]": {"biological_target": "T3, Carboxy-terminal domain RNA polymerase II polypeptide A small phosphatase 1 (Homo sapiens, UniProt Q9GZU7)", "T3 sequence (Q9GZU7 whole entry)": "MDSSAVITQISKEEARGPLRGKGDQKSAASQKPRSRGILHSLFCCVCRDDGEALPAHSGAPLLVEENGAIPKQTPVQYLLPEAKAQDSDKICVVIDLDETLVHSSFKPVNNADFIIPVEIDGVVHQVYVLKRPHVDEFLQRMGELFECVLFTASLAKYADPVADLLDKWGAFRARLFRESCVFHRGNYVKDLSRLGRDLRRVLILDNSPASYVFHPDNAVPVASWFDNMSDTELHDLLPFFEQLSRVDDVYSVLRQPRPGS", "experiment": "inhibitors of CTDSP1, concentration-response testing, biochemical assay, absorbance-based, actives from ultra-high-throughput screening (AID 540297)", "format": "functional"}, "[7]": {"biological_target": "T4, Histone-lysine N-methyltransferase NSD2 (Homo sapiens, UniProt O96028)", "T4 sequence (O96028 whole entry)": "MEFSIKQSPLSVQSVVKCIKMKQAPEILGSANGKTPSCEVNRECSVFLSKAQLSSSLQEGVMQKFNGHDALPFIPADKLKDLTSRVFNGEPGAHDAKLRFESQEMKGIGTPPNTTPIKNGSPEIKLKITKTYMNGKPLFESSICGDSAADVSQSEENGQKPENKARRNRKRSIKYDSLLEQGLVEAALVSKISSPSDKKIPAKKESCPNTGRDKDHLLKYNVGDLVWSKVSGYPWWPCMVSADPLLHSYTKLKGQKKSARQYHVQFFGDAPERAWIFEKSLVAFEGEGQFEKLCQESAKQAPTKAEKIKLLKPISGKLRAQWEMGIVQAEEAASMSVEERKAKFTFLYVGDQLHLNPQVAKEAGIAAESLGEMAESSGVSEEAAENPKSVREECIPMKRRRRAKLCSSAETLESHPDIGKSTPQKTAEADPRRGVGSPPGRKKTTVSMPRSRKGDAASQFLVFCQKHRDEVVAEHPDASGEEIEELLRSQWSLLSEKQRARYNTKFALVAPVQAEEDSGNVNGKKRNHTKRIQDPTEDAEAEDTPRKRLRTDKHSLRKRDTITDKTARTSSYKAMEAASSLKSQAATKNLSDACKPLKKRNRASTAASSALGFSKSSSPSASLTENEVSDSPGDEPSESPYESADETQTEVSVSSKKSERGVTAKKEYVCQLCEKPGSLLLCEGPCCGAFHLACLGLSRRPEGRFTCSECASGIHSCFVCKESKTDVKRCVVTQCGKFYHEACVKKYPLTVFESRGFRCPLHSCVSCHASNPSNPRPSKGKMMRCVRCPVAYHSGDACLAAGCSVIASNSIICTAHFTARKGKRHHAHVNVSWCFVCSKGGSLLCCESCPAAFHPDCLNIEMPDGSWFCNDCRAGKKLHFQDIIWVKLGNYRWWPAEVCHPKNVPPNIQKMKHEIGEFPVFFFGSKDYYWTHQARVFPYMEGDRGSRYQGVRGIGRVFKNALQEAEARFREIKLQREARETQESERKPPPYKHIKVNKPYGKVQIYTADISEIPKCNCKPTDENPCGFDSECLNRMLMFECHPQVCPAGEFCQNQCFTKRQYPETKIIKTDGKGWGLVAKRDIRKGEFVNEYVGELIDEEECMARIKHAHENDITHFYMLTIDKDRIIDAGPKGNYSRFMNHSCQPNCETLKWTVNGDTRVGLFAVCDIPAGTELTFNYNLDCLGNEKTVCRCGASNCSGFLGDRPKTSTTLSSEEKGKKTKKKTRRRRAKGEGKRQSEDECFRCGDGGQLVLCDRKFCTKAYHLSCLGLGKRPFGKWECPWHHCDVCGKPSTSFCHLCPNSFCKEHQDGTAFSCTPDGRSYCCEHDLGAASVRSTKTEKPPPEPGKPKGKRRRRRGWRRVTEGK", "format": "biochemical"}, "[8]": {"biological_target": "Protein-tyrosine kinase 2-beta (Homo sapiens, UniProt Q14289)", "sequence (Q14289 whole entry)": "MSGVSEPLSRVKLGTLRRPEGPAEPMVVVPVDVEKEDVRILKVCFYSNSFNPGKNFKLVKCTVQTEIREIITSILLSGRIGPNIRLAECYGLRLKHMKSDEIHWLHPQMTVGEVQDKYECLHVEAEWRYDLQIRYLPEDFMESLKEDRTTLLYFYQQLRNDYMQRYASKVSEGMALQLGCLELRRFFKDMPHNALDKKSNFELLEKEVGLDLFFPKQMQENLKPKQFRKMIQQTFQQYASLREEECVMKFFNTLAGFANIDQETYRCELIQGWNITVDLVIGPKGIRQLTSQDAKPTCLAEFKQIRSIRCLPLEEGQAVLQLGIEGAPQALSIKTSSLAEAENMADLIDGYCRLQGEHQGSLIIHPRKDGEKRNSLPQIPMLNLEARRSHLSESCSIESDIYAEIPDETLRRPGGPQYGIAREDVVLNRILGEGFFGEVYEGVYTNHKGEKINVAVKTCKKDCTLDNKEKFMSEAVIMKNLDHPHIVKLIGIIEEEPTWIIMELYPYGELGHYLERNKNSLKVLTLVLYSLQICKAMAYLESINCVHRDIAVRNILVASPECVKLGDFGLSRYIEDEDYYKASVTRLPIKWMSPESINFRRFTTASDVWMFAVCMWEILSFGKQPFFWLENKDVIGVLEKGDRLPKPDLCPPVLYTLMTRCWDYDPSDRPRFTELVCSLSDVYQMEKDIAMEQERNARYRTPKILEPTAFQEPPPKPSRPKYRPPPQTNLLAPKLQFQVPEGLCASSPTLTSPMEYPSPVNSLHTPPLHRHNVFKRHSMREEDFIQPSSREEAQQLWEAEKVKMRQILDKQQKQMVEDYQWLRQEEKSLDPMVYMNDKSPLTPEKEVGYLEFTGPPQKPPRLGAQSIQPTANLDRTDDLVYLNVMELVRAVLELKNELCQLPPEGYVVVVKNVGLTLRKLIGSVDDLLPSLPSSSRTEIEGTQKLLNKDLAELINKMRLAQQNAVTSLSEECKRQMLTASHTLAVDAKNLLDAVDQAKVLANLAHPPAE"}, "Cytochrome P450 2C19": {"biological_target": "Cytochrome P450 2C19 (Homo sapiens, UniProt P33261)", "sequence (P33261 whole entry)": "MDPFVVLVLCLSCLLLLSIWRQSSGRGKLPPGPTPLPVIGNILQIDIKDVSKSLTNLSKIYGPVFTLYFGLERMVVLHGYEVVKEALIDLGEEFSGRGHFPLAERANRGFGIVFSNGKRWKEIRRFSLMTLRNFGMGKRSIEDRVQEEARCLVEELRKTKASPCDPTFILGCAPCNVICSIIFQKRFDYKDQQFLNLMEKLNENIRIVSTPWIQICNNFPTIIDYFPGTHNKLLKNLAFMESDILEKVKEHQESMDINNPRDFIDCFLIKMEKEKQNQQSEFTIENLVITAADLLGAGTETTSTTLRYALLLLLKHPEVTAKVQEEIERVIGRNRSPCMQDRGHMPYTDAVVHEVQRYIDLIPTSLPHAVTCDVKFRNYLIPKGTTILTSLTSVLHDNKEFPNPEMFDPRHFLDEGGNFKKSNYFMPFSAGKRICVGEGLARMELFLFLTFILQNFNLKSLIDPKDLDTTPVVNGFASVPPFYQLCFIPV", "experiment": "Cytochrome panel assay with activity outcomes. Panel member name: p450-cyp2c19 Compounds with AC50 equal or less than 10 uM are considered active", "format": "functional", "conditions": "read-out: AC50"}, "Cytochrome P450 1A2": {"biological_target": "T5, Cytochrome P450 1A2 (Homo sapiens, UniProt P05177)", "T5 sequence (P05177 whole entry)": "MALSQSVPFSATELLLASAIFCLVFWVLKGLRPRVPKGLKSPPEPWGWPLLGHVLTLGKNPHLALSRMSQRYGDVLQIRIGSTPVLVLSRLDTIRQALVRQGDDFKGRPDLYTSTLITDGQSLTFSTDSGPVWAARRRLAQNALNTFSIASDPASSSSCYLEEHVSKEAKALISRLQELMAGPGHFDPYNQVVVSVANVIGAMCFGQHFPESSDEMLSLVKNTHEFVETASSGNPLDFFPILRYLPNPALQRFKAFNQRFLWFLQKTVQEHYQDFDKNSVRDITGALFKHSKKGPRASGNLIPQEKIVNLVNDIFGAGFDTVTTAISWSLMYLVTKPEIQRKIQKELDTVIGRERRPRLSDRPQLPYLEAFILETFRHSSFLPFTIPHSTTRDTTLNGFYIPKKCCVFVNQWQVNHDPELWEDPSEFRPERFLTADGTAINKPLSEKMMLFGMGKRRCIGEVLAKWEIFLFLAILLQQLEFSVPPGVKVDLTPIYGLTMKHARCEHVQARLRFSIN"}, "Cytochrome P450 2C9": {"biological_target": "Cytochrome P450 2C9 (Homo sapiens, UniProt P11712)", "sequence (P11712 whole entry)": "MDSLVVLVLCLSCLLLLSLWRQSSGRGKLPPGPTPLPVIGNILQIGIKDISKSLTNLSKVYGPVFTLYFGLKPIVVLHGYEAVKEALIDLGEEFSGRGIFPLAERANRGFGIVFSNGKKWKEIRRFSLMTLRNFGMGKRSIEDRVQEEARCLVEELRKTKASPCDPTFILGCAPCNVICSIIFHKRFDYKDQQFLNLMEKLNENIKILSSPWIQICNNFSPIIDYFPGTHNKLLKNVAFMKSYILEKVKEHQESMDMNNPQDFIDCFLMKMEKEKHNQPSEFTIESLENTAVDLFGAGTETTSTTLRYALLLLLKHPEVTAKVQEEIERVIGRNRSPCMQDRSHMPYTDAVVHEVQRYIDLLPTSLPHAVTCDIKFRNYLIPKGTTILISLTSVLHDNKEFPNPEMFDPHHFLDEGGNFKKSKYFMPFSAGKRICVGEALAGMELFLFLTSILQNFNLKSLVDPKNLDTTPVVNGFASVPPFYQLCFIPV"}, "[9]": {"experiment": "Luminescent dose response cell-based high throughput screening assay for inhibitors of the Janus kinase 2 mutant JAK2V617F. [Related pubchem assays: 1446 (Primary screen.), 1521 (Confirmation assay.), 1486 (Counter screen.)]", "format": "functional"}, "[10]": {"biological_target": "T6, Heat shock factor protein 1 (Mus musculus, UniProt P38532)", "T6 sequence (P38532 whole entry)": "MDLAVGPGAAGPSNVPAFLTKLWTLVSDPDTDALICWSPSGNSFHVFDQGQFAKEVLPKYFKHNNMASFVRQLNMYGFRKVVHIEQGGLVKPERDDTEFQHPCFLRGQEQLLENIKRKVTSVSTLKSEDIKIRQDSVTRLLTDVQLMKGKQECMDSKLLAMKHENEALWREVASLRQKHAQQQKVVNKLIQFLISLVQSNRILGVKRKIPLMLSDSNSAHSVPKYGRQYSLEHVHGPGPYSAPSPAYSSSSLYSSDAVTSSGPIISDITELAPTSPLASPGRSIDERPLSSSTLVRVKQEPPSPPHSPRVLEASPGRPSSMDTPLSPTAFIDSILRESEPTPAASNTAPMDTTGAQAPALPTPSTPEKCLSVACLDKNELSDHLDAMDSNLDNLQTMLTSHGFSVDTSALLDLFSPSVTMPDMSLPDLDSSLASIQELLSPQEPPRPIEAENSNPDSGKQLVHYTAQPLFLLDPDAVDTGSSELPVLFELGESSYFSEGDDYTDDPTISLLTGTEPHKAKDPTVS", "experiment": "HSF1 potentiators in luciferase reporter cells, confirmation, cell-based, NIH3T3, luminescence, dose retest (AID 435004);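 also: stress induced by proteasome inhibitor MG132 added 30 min after compound; actives raise luminescence as potentiators of the MG132 stress response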", "format": "functional"}}, "note": "The source made the active and inactive calls."}
{"smiles": "C[N+]12CCC(CC1)C(C#N)(N1CCOCC1)C2", "note": "(configuration not stated)", "values": [{"measurement": "IC50", "setting": "[1]", "result": "> 50 µM (not active)"}, {"measurement": "IC50", "setting": "[2]", "result": "4.57 µM (active)"}, {"measurement": "IC50", "setting": "[3]", "result": "4.38 µM (active)"}]}
{"smiles": "Cc1cc(/C=N/NC(=O)c2cccc(N(C)C)c2)c(C)n1-c1cc(C(=O)O)cc(C(=O)O)c1", "values": [{"measurement": "EC50", "setting": "[4]", "result": "> 300 µM (not active)"}, {"measurement": "IC50", "setting": "[5]", "result": "166 µM (active)"}, {"measurement": "IC50", "setting": "[2]", "result": "9.31 µM (active)"}, {"measurement": "IC50", "setting": "[3]", "result": "20.6 µM (active)"}, {"measurement": "IC50", "setting": "[6]", "result": "2.07 µM (active)"}, {"measurement": "AC50", "setting": "[7]", "result": "> 20 µM (inactive)"}]}
{"smiles": "O=[N+]([O-])c1cccc(/C=C/c2nc3cc([N+](=O)[O-])ccc3[nH]2)c1", "values": [{"measurement": "IC50", "setting": "[8]", "result": "20 µM (not active)"}]}
{"smiles": "N#Cc1ccccc1/C=N/Nc1nc(-c2ccccc2)c2cc(Cl)ccc2n1", "values": [{"measurement": "IC50", "setting": "[8]", "result": "> 69.5 µM (not active)"}, {"measurement": "AC50", "setting": "Cytochrome P450 2C19", "result": "25.1 µM (inconclusive)"}, {"measurement": "AC50", "setting": "Cytochrome P450 1A2", "result": "7.08 µM (inconclusive)"}, {"measurement": "AC50", "setting": "Cytochrome P450 2C9", "result": "2.24 µM (inconclusive)"}]}
{"smiles": "O=C(/C(=N/N=C/c1ccc(O)c(O)c1)c1ccccc1)c1ccccc1", "values": [{"measurement": "IC50", "setting": "[9]", "result": "1.8 µM (active)"}, {"measurement": "EC50", "setting": "[10]", "result": "> 260 µM (inactive)"}]}
{"smiles": "COC(=O)COc1cccc2c(=O)n(CC(=O)NCc3ccc(F)cc3)ccc12", "values": [{"measurement": "IC50", "setting": "[9]", "result": "1.14 µM (active)"}]}
